How the values were obtained:
[1] = target: Protein-tyrosine kinase 6 (Homo sapiens, UniProt Q13882); experiment: Inhibition of BRK (unknown origin)
[2] = target: Receptor-type tyrosine-protein kinase FLT3 (Homo sapiens, UniProt P36888); experiment: Inhibition of FLT3 (unknown origin)
[3] = target: Serine/threonine-protein kinase pim-1 (Homo sapiens, UniProt P11309); experiment: Inhibition of human PIM1 using ARK-RERTYSFGHHA as substrate incubated for 60 mins prior to substrate addition by topcount scintillation counting analysis in presence of [P33gamma]-ATP
[4] = target: Hepatocyte growth factor receptor (Homo sapiens, UniProt P08581); experiment: Inhibition of c-MET (unknown origin)
[5] = AUC in BALB/c mouse at 8.2 mg/kg, iv; assay type: ADME, organism-based; parameters: dose 8.2 mg/kg, route intravenous; details: plasma
[6] = target: hERG (KCNH2) (Homo sapiens, UniProt Q12809); experiment: Inhibition of human ERG channel at 10 uM
[7] = target: Non-receptor tyrosine-protein kinase TYK2 (Homo sapiens, UniProt P29597); experiment: Inhibition of TYK2 (unknown origin)
[8] = target: Activated CDC42 kinase 1 (Homo sapiens, UniProt Q07912); experiment: Inhibition of ACK1 (unknown origin)
[9] = Inhibition of SULU1 (unknown origin); parameters: species or system Homo sapiens
[10] = target: Cytochrome P450 2C9 (Homo sapiens, UniProt P11712); experiment: Inhibition of CYP2C9 (unknown origin); assay type: ADME
[11] = target: Cytochrome P450 2D6 (Homo sapiens, UniProt P10635); experiment: Inhibition of CYP2D6 (unknown origin); assay type: ADME
[12] = AUC in BALB/c mouse at 8.2 mg/kg, po; assay type: ADME, organism-based; parameters: dose 8.2 mg/kg, route oral; details: plasma
[13] = target: Tyrosine-protein kinase Lyn (Homo sapiens, UniProt P07948); experiment: Inhibition of LYN (unknown origin)
[14] = target: Serine/threonine-protein kinase pim-3 (Homo sapiens, UniProt Q86V86); experiment: Inhibition of human PIM3 using ARK-RERTYSFGHHA as substrate incubated for 60 mins prior to substrate addition by topcount scintillation counting analysis in presence of [P33gamma]-ATP
[15] = target: Mast/stem cell growth factor receptor Kit (Homo sapiens, UniProt P10721); experiment: Inhibition of KIT (unknown origin)
[16] = tested on: LNCaP; experiment: Cytotoxicity against human LNCAP cells after 72 hrs by CellTitre-Glo assay; assay type: functional, cell-based
[17] = target: Tyrosine-protein kinase JAK1 (Homo sapiens, UniProt P23458); experiment: Inhibition of JAK1 (unknown origin)
[18] = target: Epidermal growth factor receptor (Homo sapiens, UniProt P00533); experiment: Inhibition of EGFR1 (unknown origin)
[19] = target: Glycogen synthase kinase-3 beta (Homo sapiens, UniProt P49841); experiment: Inhibition of GSK3beta (unknown origin)
[20] = target: Vascular endothelial growth factor receptor 3 (Homo sapiens, UniProt P35916); experiment: Inhibition of VGFR3 (unknown origin)
[21] = target: Proto-oncogene tyrosine-protein kinase receptor Ret (Homo sapiens, UniProt P07949); experiment: Inhibition of RET (unknown origin)
[22] = target: Eukaryotic translation initiation factor 2-alpha kinase 3 (Homo sapiens, UniProt Q9NZJ5); experiment: Inhibition of PERK (unknown origin)
[23] = target: Serine/threonine-protein kinase Chk1 (Homo sapiens, UniProt O14757); experiment: Inhibition of CHK1 (unknown origin)
[24] = target: Serine/threonine-protein kinase pim-1 (Mus musculus) (UniProt P06803); experiment: Inhibition of PIM1 in mouse BA/F3 cells assessed as phosphorylation of 4EBP1 at T37/T46 after 24 hrs by Western blotting analysis; assay type: cell-based; details: BaF3
[25] = Intrinsic clearance in rat hepatocytes; assay type: ADME, cell-based, Hepatocyte; details: read-out: CLH
[26] = target: ALK tyrosine kinase receptor (Homo sapiens, UniProt Q9UM73); experiment: Inhibition of ALK (unknown origin)
[27] = Cytotoxicity against human KMS11 cells after 72 hrs by CellTitre-Glo assay; assay type: functional, cell-based; details: KMS-11, 72 h
[28] = target: RAC-alpha serine/threonine-protein kinase (Homo sapiens, UniProt P31749); experiment: Inhibition of AKT1 (unknown origin)
[29] = tested on: MV4-11; experiment: Cytotoxicity against human MV4-11 cells after 72 hrs by CellTitre-Glo assay; assay type: functional, cell-based; details: MV4-11, 72 h
[30] = target: Aurora kinase A (Homo sapiens, UniProt O14965); experiment: Inhibition of aurora kinase 1 (unknown origin)
[31] = Plasma protein binding in human; assay type: ADME, cell-free; details: read-out: PPB (converted)
[32] = Cytotoxicity against mouse BA/F3 cells overexpressing PIM1 after 72 hrs by CellTitre-Glo assay; assay type: functional, cell-based; details: BaF3, 72 h

**Q.** Which IC50 [1] does the source give for `CN1CCN(C[C@@H](NC(=O)C[C@H]2CNC(=O)c3cc(-c4cccc(Cl)c4)cn32)C2CCCCC2)CC1` here?
**A.** > 10 µM

**Q.** What about the IC50 [2] of the same compound?
**A.** > 10 µM

**Q.** And the IC50 [3]?
**A.** 0.03 µM

**Q.** What about the IC50 [4] of the same compound?
**A.** > 10 µM

**Q.** And the AUC [5]?
**A.** 8.75 µM·h

**Q.** And the inhibition at 10 µM [6]?
**A.** 16%

**Q.** And the IC50 [7]?
**A.** > 10 µM

**Q.** What about the IC50 [8] of the same compound?
**A.** > 10 µM

**Q.** And the IC50 [9]?
**A.** > 10 µM

**Q.** What about the IC50 [10] of the same compound?
**A.** > 10 µM

**Q.** What about the IC50 [11] of the same compound?
**A.** > 10 µM

**Q.** And the AUC [12]?
**A.** 0.05 µM·h

**Q.** What about the IC50 [13] of the same compound?
**A.** > 10 µM

**Q.** What about the IC50 [14] of the same compound?
**A.** 0.012 µM

**Q.** And the IC50 [15]?
**A.** > 10 µM

**Q.** What about the IC50 [16] of the same compound?
**A.** 3.31 µM

**Q.** And the IC50 [17]?
**A.** > 10 µM

**Q.** What about the IC50 [18] of the same compound?
**A.** > 10 µM

**Q.** What about the IC50 [19] of the same compound?
**A.** > 10 µM

**Q.** What about the IC50 [20] of the same compound?
**A.** > 10 µM

**Q.** What about the IC50 [21] of the same compound?
**A.** > 10 µM

**Q.** What about the IC50 [22] of the same compound?
**A.** > 10 µM

**Q.** What about the IC50 [23] of the same compound?
**A.** > 10 µM

**Q.** And the inhibition [24]?
**A.** Dose-dependent effect

**Q.** And the CLint scaled [25]?
**A.** 21 mL/min/kg

**Q.** What about the IC50 [26] of the same compound?
**A.** > 10 µM

**Q.** What about the IC50 [27] of the same compound?
**A.** 7.13 µM

**Q.** And the IC50 [28]?
**A.** > 10 µM

**Q.** And the IC50 [29]?
**A.** 1.53 µM

**Q.** And the IC50 [30]?
**A.** > 10 µM

**Q.** What about the fraction unbound [31] of the same compound?
**A.** 0.03

**Q.** What about the IC50 [32] of the same compound?
**A.** 0.125 µM
